Assays:
h-GABA-A α5β3γ2 [1] = biological target: T1, h-GABA-A α5β3γ2 (Homo sapiens (Human), UniProt P18507+P31644); test: Two-electrode voltage clamp electrophysiology in Xenopus oocytes expressing GABAA receptors, modulation of GABA EC20 current; format: cell-based; settings: Xenopus oocytes; for Efficacy (GABA) %: % modulation of GABA EC20 = 100*(Fold increase−1); for Fold increase h-GABA-A α5β3γ2 oocyte: GABA EC20, test compound at approx. 30 fold its Ki
Method in brief: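 Values are % modulation of an EC20 GABA response, derived point by point from the ratio of compound-exposed versus control current traces (extremum taken, 100×(fold−1)). Recordings used oocytes injected with human α5, β3, γ2 mRNA, clamped at −80 mV at room temperature, at least 3 oocytes each.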

h-GABA-A α5β3γ2 [2] = biological target: T1, h-GABA-A α5β3γ2; test: [3H]flumazenil competition binding assay, membranes of HEK293 cells expressing human GABAA receptors; settings: displacement of [3H]flumazenil 0.5 nM, HEK293 cells expressing human receptors, mean of two determinations; read-out: Ki h-GABA-A α5β3γ2
Method in brief: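 Membranes were prepared from HEK293 cells with transient human α5β3γ2 expression and assayed in Krebs-tris, pH 7.5. Bound radioactivity measured on filters by liquid scintillation.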

SMILES | Efficacy (GABA) % (h-GABA-A α5β3γ2 [1]) | Fold increase h-GABA-A α5β3γ2 oocyte (h-GABA-A α5β3γ2 [1]) | Ki (h-GABA-A α5β3γ2 [2])
Cc1ccc(-c2noc(C)c2COc2cnc(C(=O)NC3CC4(COC4)C3)cn2)cn1 [Example 101, 5-((5-methyl-3-(6-methylpyridin-3-yl)isoxazol-4-yl)methoxy)-N-(2-oxaspiro[3.3]heptan-6-yl)pyrazine-2-carboxamide] | 82% | 1.82 | 50.6 nM
Cc1ccc(-c2noc(C)c2COc2cnc(C(=O)N[C@H]3CC[C@@H](C(F)(F)F)CC3)cn2)cn1 [Example 102, 5-((5-methyl-3-(6-methylpyridin-3-yl)isoxazol-4-yl)methoxy)-N-(cis-4-(trifluoromethyl)cyclohexyl)pyrazine-2-carboxamide] | 21% | 1.21 | 20.7 nM
Cc1ccc(-c2noc(C)c2COc2ccc(C(=O)N[C@H]3CCCOC3)nn2)cn1 [Example 103, (S)-6-((5-methyl-3-(6-methylpyridin-3-yl)isoxazol-4-yl)methoxy)-N-(tetrahydropyran-3-yl)pyridazine-3-carboxamide] | 81% | 1.81 | 79 nM
Cc1ccc(-c2noc(C)c2COc2cnc(C(=O)N[C@H]3CC[C@@](C)(O)CC3)cn2)cn1 [Example 104, N-(cis-4-hydroxy-4-methylcyclohexyl)-5-((5-methyl-3-(6-methylpyridin-3-yl)isoxazol-4-yl)methoxy)pyrazine-2-carboxamide] | 43% | 1.43 | 66.3 nM
Cc1ccc(-c2noc(C)c2COc2cnc(C(=O)N[C@H]3CC[C@](C)(O)CC3)cn2)cn1 [Example 105, N-(trans-4-hydroxy-4-methylcyclohexyl)-5-((5-methyl-3-(6-methylpyridin-3-yl)isoxazol-4-yl)methoxy)pyrazine-2-carboxamide] | 101% | 2.01 | 22.7 nM
Cc1ccc(-c2noc(C)c2COc2ccc(C(=O)NC3(C)CCOCC3)cn2)cn1 [Example 106, 6-((5-methyl-3-(6-methylpyridin-3-yl)isoxazol-4-yl)methoxy)-N-(4-methyltetrahydropyran-4-yl)nicotinamide] | 64% | 1.64 | 60.3 nM
Cc1ccc(-c2noc(C)c2COc2cc3c(cn2)C(=O)N(C2CCSCC2)C3)cn1 [Example 107, 6-((5-methyl-3-(6-methylpyridin-3-yl)isoxazol-4-yl)methoxy)-2-(tetrahydro-2H-thiopyran-4-yl)-1H-pyrrolo[3,4-c]pyridin-3(2H)-one] | 69% | 1.69 | 9.6 nM
Cc1ccc(-c2noc(C)c2COc2ccc(C(=O)NC3CCOCC3)cn2)nn1 [Example 108, 6-((5-methyl-3-(6-methylpyridazin-3-yl)isoxazol-4-yl)methoxy)-N-tetrahydropyran-4-yl-pyridine-3-carboxamide] | 20% | 1.2 | 0.4 nM
CCC[C@@H](CO)NC(=O)c1ccc(OCc2c(-c3ccc(C)nn3)noc2C)nc1 [Example 109, N-((1S)-1-(hydroxymethyl)butyl)-6-((5-methyl-3-(6-methylpyridazin-3-yl)isoxazol-4-yl)methoxy)pyridine-3-carboxamide] | 42% | 1.42 | 0.8 nM
Cc1ccc(-c2noc(C)c2COc2ccc(C(=O)NC3(C)CCSCC3)nn2)cn1 [Example 110, 6-((5-methyl-3-(6-methylpyridin-3-yl)isoxazol-4-yl)methoxy)-N-(4-methyltetrahydrothiopyran-4-yl)pyridazine-3-carboxamide] | 65% | 1.65 | 15.5 nM
Cc1ccc(-c2noc(C)c2COc2ccc(C(=O)NC3(C)CCS(=O)(=O)CC3)nn2)cn1 [Example 111, N-(4-methyl-1,1-dioxidotetrahydro-2H-thiopyran-4-yl)-6-((5-methyl-3-(6-methylpyridin-3-yl)isoxazol-4-yl)methoxy)pyridazine-3-carboxamide] | 89% | 1.89 | 4.6 nM
Cc1ccc(-c2noc(C)c2COc2ccc(C(=O)N3CC4(C3)CS(=O)(=O)C4)nn2)cn1 [Example 112, (2,2-dioxido-2-thia-6-azaspiro[3.3]heptan-6-yl)(6-((5-methyl-3-(6-methylpyridin-3-yl)isoxazol-4-yl)methoxy)pyridazin-3-yl)methanone] | 43% | 1.43 | 6.5 nM
Cc1ccc(-c2noc(C)c2COc2cnc(C(=O)N3CC4(C3)CS(=O)(=O)C4)cn2)cn1 [Example 113, (2,2-dioxido-2-thia-6-azaspiro[3.3]heptan-6-yl)(5-((5-methyl-3-(6-methylpyridin-3-yl)isoxazol-4-yl)methoxy)pyrazin-2-yl)methanone] | 28% | 1.28 | 33.8 nM
Cc1ccc(-c2noc(C)c2COc2ccc(C(=O)NC3(C)CCCC3)nn2)cn1 [Example 114, 6-((5-methyl-3-(6-methylpyridin-3-yl)isoxazol-4-yl)methoxy)-N-(1-methylcyclopentyl)pyridazine-3-carboxamide] | 74% | 1.74 | 28.1 nM
Cc1ccc(-c2noc(C)c2COc2cnc(C(=O)NCCCC(F)(F)F)cn2)cn1 [Example 115, 5-((5-methyl-3-(6-methylpyridin-3-yl)isoxazol-4-yl)methoxy)-N-(4,4,4-trifluorobutyl)pyrazine-2-carboxamide] | 139% | 2.39 | 51.6 nM
Cc1ccc(-c2noc(C)c2COc2ccc(C(=O)NC3CN(C(C)C)C3)nn2)cn1 [Example 116, N-(1-isopropylazetidin-3-yl)-6-((5-methyl-3-(6-methylpyridin-3-yl)isoxazol-4-yl)methoxy)pyridazine-3-carboxamide] | 59% | 1.59 | 4.9 nM
Cc1ccc(-c2noc(C)c2COc2cc3c(cn2)C(=O)N(C2CC4(COC4)C2)C3)cn1 [Example 117, 6-((5-methyl-3-(6-methylpyridin-3-yl)isoxazol-4-yl)methoxy)-2-(2-oxaspiro[3.3]heptan-6-yl)-1H-pyrrolo[3,4-c]pyridin-3(2H)-one] | 99% | 1.99 | 15.6 nM
Cc1ccc(-c2noc(C)c2COc2ccc(C(=O)NC3(C)CCC3)nn2)cn1 [Example 118, 6-((5-methyl-3-(6-methylpyridin-3-yl)isoxazol-4-yl)methoxy)-N-(1-methylcyclobutyl)pyridazine-3-carboxamide] | 88% | 1.88 | 12.3 nM
CCc1onc(-c2ccc(C)nc2)c1COc1ccc(C(=O)NC2CCOCC2)cn1 [Example 119, 6-((5-ethyl-3-(6-methylpyridin-3-yl)isoxazol-4-yl)methoxy)-N-tetrahydropyran-4-yl-pyridine-3-carboxamide] | 102% | 2.02 | 31 nM
CCc1onc(-c2ccc(C)nc2)c1COc1ccc(C(=O)NC2CCS(=O)(=O)CC2)cn1 [Example 120, N-(1,1-dioxidotetrahydro-2H-thiopyran-4-yl)-6-((5-ethyl-3-(6-methylpyridin-3-yl)isoxazol-4-yl)methoxy)pyridine-3-carboxamide] | 160% | 2.6 | 52.1 nM
CCc1onc(-c2ccc(C)nc2)c1COc1ccc(C(=O)NC2CCOCC2)nn1 [Example 121, 6-((5-ethyl-3-(6-methylpyridin-3-yl)isoxazol-4-yl)methoxy)-N-(tetrahydropyran-4-yl)pyridazine-3-carboxamide] | 109% | 2.09 | 40.3 nM
CCc1onc(-c2ccc(C)nc2)c1COc1ccc(C(=O)NC2(C)COC2)nn1 [Example 122, 6-((5-ethyl-3-(6-methylpyridin-3-yl)isoxazol-4-yl)methoxy)-N-(3-methyloxetan-3-yl)pyridazine-3-carboxamide] | 126% | 2.26 | 26.4 nM
CCc1onc(-c2ccc(C)nc2)c1COc1ccc(C(=O)NC2CC2)nn1 [Example 123, N-cyclopropyl-6-((5-ethyl-3-(6-methylpyridin-3-yl)isoxazol-4-yl)methoxy)pyridazine-3-carboxamide] | 106% | 2.06 | 22.1 nM
CCC[C@H](CO)NC(=O)c1ccc(OCc2c(-c3ccc(C)nc3)noc2C)nc1 [Example 124, (R)—N-(1-hydroxypentan-2-yl)-6-((5-methyl-3-(6-methylpyridin-3-yl)isoxazol-4-yl)methoxy)pyridine-3-carboxamide] | 47% | 1.47 | 36.6 nM
CCC[C@@H](CO)NC(=O)c1ccc(OCc2c(-c3ccc(C)nc3)noc2C(F)F)nc1 [Example 125, 6-((5-(difluoromethyl)-3-(6-methyl-3-pyridyl)isoxazol-4-yl)methoxy)-N-((1S)-1-(hydroxymethyl)butyl)pyridine-3-carboxamide] | 142% | 2.42 | 59 nM
